Assay results published in paper PMC10993450, “New benzimidazole derivative compounds with in vitro fasciolicidal properties” (Parasites & Vectors, 2024).
Values joined by “and” are separate entries in the source; they are usually repeats but may differ in a detail not shown here. Equal entries are not always repeated. “Also recorded” adds a separate entry of the source. Where two headings read alike, the source gives them in different places.

Assays:
[1] = system: Fasciola hepatica eggs (ABZ-susceptible isolate); experiment: Egg hatch test (EHT), ABZ-susceptible isolates; type: cell-based; conditions: mean ± SEM; for % Ovicidal activity: ABZ-susceptible isolate; for killing at 5 µM: Fasciola hepatica, read-out: % Ovicidal activity susceptible isolate
Protocol: Eggs were recovered from gallbladders of cattle naturally infected with F. hepatica at the municipal slaughterhouse of León (Spain). For this, the bile of the gallbladders was filtered through sieves of different diameter size pores (500, 150, and 20 µm) using pressurized tap water. Eggs retained on the 20 µm pore size sieve were collected and stored at 4 °C in darkness until required within a maximum period of 2 months.
The susceptibility of the isolates to ABZ was confirmed by the egg hatch test (EHT) using an ABZ discriminant dose (DD) of 0.5 µM [23]. The technique is described in more detail below.
The in vitro anthelmintic activity of a total of 70 BZDs was initially tested on F. hepatica eggs recovered from gallbladders of cattle naturally infected with ABZ-susceptible isolates. The first screening was performed using a fixed concentration of 50 µM. […] Therefore, only BZDs with ovicidal activities over 80% progressed to the next assays at 10 µM. […] At this last concentration, the ovicidal effect of ABZ, ABZSO, and OXF was also evaluated.
(§1) The in vitro EHT described in the current study was based on previous studies. Briefly, 100–120 eggs were incubated in 990 µL of water and 10 μL of each working solution at 25 °C in the dark for a period of 12 h. After incubation, eggs were gently washed with tap water three times to facilitate compound removal and kept in darkness at 25 °C for 14 days. After this period, eggs were exposed to light for 2 h to stimulate the hatching of eggs. Then, hatched and unhatched eggs were evaluated and counted using an optical microscope. The term “hatched eggs” includes both hatched and embryonated eggs. Negative control eggs were incubated with 10 μL of DMSO in 990 μL of water, reaching a maximum DMSO concentration of 1% (v/v), while ABZ at 0.5 µM was used as positive control. Each compound at a specific concentration was tested in triplicate in the same EHT and repeated at least two different days.
With the aim to characterize the susceptibility of isolates from naturally infected cattle, the drug used in the EHT was ABZ, tested at a discriminant dose of 0.5 μM. Drug susceptibility is assumed when the ovicidal activity is over 70%, resistance when is lower than 40%, and a suspicion of resistance when activity is between these values at 0.5 μM.
(§2) The efficacy of each compound and drug was calculated as its ovicidal activity following the formula below: Ovicidal activity%=100×%eggs hatched in negative control-%egg hatched after drug incubation/%egg hatched in control.

[2] = system: Fasciola hepatica eggs (ABZ-resistant isolate); experiment: Egg hatch test (EHT), ABZ-resistant isolate; type: cell-based; conditions: 5 µM, mean ± SEM
Text: F. hepatica eggs were recovered after washing the gallbladder of three naturally infected sheep belonging to a flock suspected to be resistant to ABZ. From these eggs, metacercariae were produced at the Centro de Investigaciones de Mabegondo (AGACAL, Xunta de Galicia, Spain) following a previous protocol. These metacercariae were used to infect eight sheep with a dose of 200 metacercariae. The infection was confirmed individually 3 months after the infection by coprological analysis using a sedimentation technique. At that point, sheep were randomly located in two groups of four animals: one treated with a therapeutic dose of ABZ (7.5 mg/kg) and the other one only with water, as control group. To assess the efficacy of ABZ in this isolate, all sheep were humanely euthanized by an intravenous administration of a lethal dose of sodium pentobarbital (Dolethal®, Vetoquinol, Spain) 2 weeks later for fluke recovery and counting. Afterwards, the in vivo efficacy of ABZ was calculated as the percentage of adult worm reduction compared with the untreated control. Additionally, the number of eggs per gram of feces (EPG) was estimated on the treatment day (mentioned as day 0) and 14 days later to determine drug efficacy by means of the fecal egg count reduction test (FECRT).
During the necropsy, gallbladders from sheep belonging to the untreated group were taken to collect the eggs and carry out the in vitro EHT, while flukes collected from livers were used to conduct the adult viability test (AVT).
Those BZDs with an activity higher than 80% at a concentration of 10 µM were also screened on eggs and adults from the ABZ resistant isolate.
as §1, §2

[3] = system: Fasciola hepatica adults (ABZ-resistant isolate); experiment: Adult viability test (AVT), motility inhibition; type: cell-based; conditions: 10 µM, ABZ-resistant isolate; for inhibition at 10 µM: Fasciola hepatica, relative to motility score at 24 h
Protocol: The adult viability test was based on a previous study carried out by Kirchhofer et al. with minor modifications. In brief, adult F. hepatica flukes were recovered from bile ducts of infected sheep with the resistant isolate. Flukes were quickly washed with 0.9% (w/v) NaCl and placed in six-well plates (Costar, Spain) with RPMI 1640 culture medium (Sigma-Aldrich®, Spain) supplemented with antibiotics (50 μg/mL streptomycin and 50 IU/mL penicillin; Sigma-Aldrich®, Spain) and 80 μg/mL of a hemin solution at 37 °C.
To monitor the anthelmintic effect of BZDs and the commercial drug ABZ, two flukes per well were incubated up to 72 h at a final concentration of 10 µM. DMSO at 0.5% was used as negative control. The individual movement of each fluke was examined using an inverted microscope at 24, 48, and 72 h. The activity of the compounds was estimated as motility inhibition, using a scale of fluke viability ranging from 3 (normal movements) to 0 (death, no movement observed for 2 min). All tests were repeated at least twice at different days.
Additionally, the percentage of motility inhibition for each compound was calculated from […] to 48 and 72 h after treatment using the following formula: 100 × (mean of the motility score of BZD at 24 h − mean of the motility score of BZD at 48 or 72 h)/(mean of the motility score of BZD at 24 h).
For the AVT, statistical analysis was performed using GraphPad Prism version 8.0.2. The normality of the motility inhibition scores was assessed using the Shapiro–Wilk test. Then, differences among scores at the three time points (24, 48, and 72 h) were evaluated using the Friedman test. In cases where significant differences were observed, post hoc analysis was conducted using the Nemenyi test for multiple comparisons. Comparisons with a P value < 0.05 were considered statistically significant.

[4] = Cytotoxicity assay, alamarBlue; type: cell-based, human; conditions: human, HepG2 cells; 72 h exposure, alamarBlue; read-out: CC50 Hep-G2
Protocol: The effect of the BZDs on cell viability was assessed on a human hepatocarcinoma HepG2 (ATCC® HB-8065™, USA) cell line. Only compounds screened at a concentration of 10 µM were evaluated. The detailed protocol is described in a previous study carried out by our research group. Briefly, 10,000 cells were seeded on 96-well plates and incubated with different concentrations of the compounds ranging from 1 to 100 µM at 37 °C and 5% CO2. After 72 h of exposure, viability of the cells was assessed using the alamarBlue (Fisher Scientific®, Spain) staining method according to the manufacturer’s recommendations.
The data are represented as mean ± standard error of media (SEM).

[5] = system: Teladorsagia circumcincta eggs; conditions: type II BZDs; read-out: IC50 against T. circumcincta eggs; cited from earlier work
[6] = read-out: % Adult motility inhibition 48 h
[7] = read-out: % Adult motility inhibition 72 h

Compound	% Ovicidal activity ([1]; 10 µM) [%]	% Ovicidal activity ([1]; 10 µM, listed as BDZ-31) [%]	% Ovicidal activity ([1]; 10 µM, listed as BZD-31) [%]	% Ovicidal activity ([1]; 50 µM) [%]	% Ovicidal activity ([1]; 50 µM, listed as BZD-31)	killing at 5 µM [1] [%]	% Ovicidal activity resistant isolate [2]	Motility inhibition of adults after 72 h of incubation (in words; significance vs 24 h) [3]	inhibition at 10 µM [3, 6] [%]	inhibition at 10 µM [3, 7] [%]	CC50 at 72 h [4] [nM]	% Ovicidal activity ([1]; 50 µM, listed as BZD-46)	% Ovicidal activity resistant isolate ([2]; listed as BZD-46)	IC50 [5] [nM]	% Ovicidal activity ([1]; 10 µM, listed as BZD-56) [%]	% Ovicidal activity ([1]; 50 µM, listed as BZD-56)	% Ovicidal activity resistant isolate ([2]; listed as BZD-56)	% Ovicidal activity ([1]; 10 µM, listed as BZD-59) [%]	% Ovicidal activity ([1]; 50 µM, listed as BZD-59)	% Ovicidal activity resistant isolate ([2]; listed as BZD-59)
Cc1ccc2[nH]c(NCc3cccs3)nc2c1 [BZD31]	99.58 ± 00.26	99.5	≥ 80	100.00 ± 0.00	higher than 80%	74	53% and 53.24 ± 20.94%	significant reduction	35.7	38.1	> 50000									
Cc1ccc2[nH]c(NC(=O)c3ccccc3)nc2c1 [BZD46]	83.90 ± 02.87			98.59 ± 0.94		71.2 ± 9.91	11.06 ± 05.30%	nor those with ABZSO or BZD46, exhibited any significant motility inhibition	28.6	28.6	> 100000	higher than 80%	below 13%	~1000						
COc1ccc2[nH]c(NC(=O)c3ccccc3)nc2c1 [BZD56]	93.93 ± 01.90			99.58 ± 0.22		< 90	12.39 ± 03.71%	significant reduction	53	51.5	> 100000			~1000	≥ 80	higher than 80%	below 13%			
O=C(Nc1nc2cc(Cl)ccc2[nH]1)c1ccccc1 [BZD59]	91.16 ± 02.58			100.00 ± 0.00		73.5 ± 8.88	06.28 ± 05.20%	high motility inhibition; also recorded: significant reduction; also recorded: most potent compound; also recorded: most significant reduction in worm motility	46.7	60	> 100000			~1000				≥ 80	higher than 80%	below 13%
